Data on 16 compounds can be found in US7423181B2, “Aminoalkoxy-functional chalcones” (Lica Pharmaceuticals A/S, priority 2002, dated 2008).

Data set [1] has as its system dihydroorotate dehydrogenase (DHODH). Put plainly: DHODH assay. The format is biochemical. The note with it: at 10 μM. The method, then: 100 μl chalcone or 0.1 M Tris-HCl pH 8.0 is added to a well in a 96-wells microtiter plate. Then 50 μl enzyme dilution is added. The microtiter plate is placed in the Powerwavex340 and the enzymatic reactions starts when adding 100 μl assay mixture. The reaction are measured every 20 sec. for 10 min. The samples with chalcones are compared with the samples with 0.1 M Tris-HCl pH 8.0 and the percent inhibition is calculated.
Enzyme dilution: The solution of recombinant purified enzyme is dissolved in 0.1 M Tris-HCl pH 8 to give an initial velocity of 0.04-0.05 ΔA/min.
2,6-dichlorophenolindophenol (DCIP)-stock solution: 40 mg DCIP and 10 ml 99% Ethanol are mixed for 10 min at RT. Then 100 μl 1.0 M Tris-HCl pH 8 and miliQ H2O are added to a final volume of 100 ml. The A600 of the DCIP-stock solution are measured in a microtiter plate on the Powerwavex340 (Bio-Tek instruments,Inc.)
[…]: 25 mM dihydroorotate stock-solution is prepared by first dissolving in the same amount of mol NaOH and then miliQ H2O is added to the final volume.
Assay mix (10 ml solution): 600 μl of DHODH-stock solution and X ml (depending on the A600 value of stock-solution) DCIP to a final A600=2.5 are mixed. Then 0.1 M Tris-HCl pH 8.0 are added to a final volume of 10 ml.
Preparation of compound soluton: A 10 mM stock-solution of compound (e.g. a chalcone derivative) is made in dimethylsulfoxid (DMSO). The compound is then diluted in 0.1 M Tris-HCl pH 8 to the test concentrations. The final DMSO concentration in the sample is 10%

Data set [2] is described as follows: Determination of solubility. It is filed as physicochemical. As to conditions: aqueous buffer at pH 7.4. The protocol: Determination of Solubility
Solubility of the compounds was determined by preparing a saturated solution of compound in 0.3 M phosphate buffer (pH 7.4±0.3) in a brown glass tube. The suspensions were rotated slowly for 24 hours. Aliquots were centrifuged for 10 minutes at 14.000 rpm and supernatants were diluted in 40% (v/v) acetonitrile in water prior to HPLC analysis. Concentrations of analytes were quantified against a standard curve and used as term of solubility. The HPLC-UV method used for the assessment of solubility is the same as used in the in vitro metabolism assay.

Data set [3] deals with Plasmodium falciparum 3D7. Put plainly: Plasmodium falciparum assay. The format is cell-based. The note with it: Plasmodium falciparum 3D7 (Table 2); read-out: IC50.
Data set [4] can be described thus: Determination of metabolic stability (liver microsomes). It is filed as in vitro ADME. As to conditions: rat liver microsomes, 20 μM, 15 min. The method, then:
Determination of Metabolic Stability
Incubations were performed with Wistar rat liver microsomes (0.25 mg/ml) in 2% sodium bicarbonate solution. NADP (0.13 mg/ml), glucose-6-phosphate (0.63 mg/ml) and glucose-6-phosphate dehydrogenase (0.38 units/ml) were used as NADPH generation system and UDPGA (0.48 mg/ml) was added to include the phase II reaction, glucuronic acid conjugation, in the assay. After 5 minutes of pre-incubation the reaction was started by addition of the test article to give a final concentration of 20 μM. Samples were incubated for 15 min at 37° C. and the reactions were terminated by addition of equal volumes of acetonitrile. Blank incubations were performed at the same concentration but without addition of microsomes. Both blank and microsome-containing samples were made in replicats of three. Prior to analysis samples were centrifuged for 10 min. at 3500 rpm,HPLC system:
Initial conditions were 40% mobile phase A (acetonitrile) and 60% mobile phase B (10 mM ammonium acetate pH 9.5). During the first 20 minutes, the mobile phase was changed via a linear gradient to 90% A and 10% B. This was followed by a 5 minutes linear gradient to initial conditions, which were maintained for 5 min. The flow rate was 0.20 m)/min and injection volume 10 μl.

For data set [5], the system named is Staphylococcus aureus ATCC29213. Put plainly: MIC determination in broth microdilution assay. As to conditions: A: Staphylococcus aureus ATCC29213. On the technique in general: In broth dilution the organism is exposed to a series of concentrations in liquid medium.
In data set [6] the test system is Staphylococcus aureus ATCC33591(resistant to methicillin). As to the kind of experiment: MIC determination in broth microdilution assay. As to conditions: B: Staphylococcus aureus ATCC33591(resistant to methicillin).
Data set [7] deals with Enterococcus faecalis ATCC29212. Put plainly: MIC determination in broth microdilution assay. The note with it: D: Enterococcus faecalis ATCC29212.
Data set [8] deals with Enterococcus faecium #17501 (vancomycin-resistant clinical isolate). As to the kind of experiment: MIC determination in broth microdilution assay. The note with it: E: Enterococcus faecium #17501 (vancomycin-resistant).
The test system of data set [9] is Eschericia coli ATCC25922. As to the kind of experiment: MIC determination in broth microdilution assay. The note with it: for MIC: G: Eschericia coli ATCC25922.
The test system of another data set is Eschericia coli ESS. Put plainly: MIC determination in broth microdilution assay. The note with it: for MIC: H: Eschericia coli ESS.
In another data set the test system is L. major promastigotes. Put plainly: Leishmania promastigote assay. As to conditions: for IC50: L. major.
Data set [10] has as its system panel of 10 different non-fastidious bacteria. Put plainly: Screening against panel of non-fastidious bacteria.
Data set [11] deals with Bacteroides fragilis, Clostridium perfringens, Clostridium difficele. The format is cell-based. The note with it: single concentration of compound (100 μM).
Data set [12] has as its system Streptococcus pneumoniae #998 (clinical isolate). Put plainly: MIC determination in broth microdilution assay. The note with it: F: Streptococcus pneumoniae #998.

Structures are written as SMILES. In brackets after ≈: the same amount, converted by molar mass.

In the case of `CN(C)CCOc1ccc(C(C)(C)C)cc1/C=C/C(=O)c1ccccc1NS(=O)(=O)c1ccccc1` [Compound C027, N-(2-{3-[5-tert-Butyl-2-(2-dimethylamino-ethoxy)-phenyl]-(E)-acryloyl}-phenyl)-benzenesulfonamide], the “Inhibition of DHODH” value in data set [1] was 22%.

A word on the Solubility: it is the dissolved amount per volume that the medium holds. Read a low Solubility as a poorly soluble substance. In data set [2], `Cc1ccccc1-c1ccc(OCCN2CCCC2)c(/C=C/C(=O)c2ccccc2CN(C)C)c1` [Compound C136, (E)-1-(2-Dimethylaminomethyl-phenyl)-3-[2′-methyl-4-(2-pyrrolidin-1-yl-ethoxy)-biphenyl-3-yl]-propenone] came in with a Solubility of 5500 µg/mL (≈ 11.7 mM).

The term IC50 denotes the concentration that gives 50% inhibition. What is called MIC is the lowest concentration found to suppress growth. A low value points to a more susceptible organism. For the compound `Cc1cc(C)cc(-c2ccc(OCCN(C)C)c(/C=C/C(=O)c3cccc(NCCN(C)C)c3)c2)c1` [Compound C075, (E)-3-[4-(2-Dimethylamino-ethoxy)-3′,5′-dimethyl-biphenyl-3-yl]-1-[3-(2-dimethylamino-ethylamino)-phenyl]-propenone], the concentration for half-maximal inhibition (IC50) in data set [3] was 500 nM. For the same compound, the “Metabolic turn-over in vitro” value in [4] amounted to 8%. Further, the Solubility in data set [2] was determined as 4100 µg/mL (≈ 8.44 mM). For the same compound, the minimum inhibitory concentration (MIC) in data set [5] came to 4.7 µM (≈ 2.28 µg/mL); in [6] it was 4.7 µM (≈ 2.28 µg/mL); in data set [7] it was 9.4 µM (≈ 4.57 µg/mL); in [8] it was 9.4 µM (≈ 4.57 µg/mL); in data set [9] it was 9.4 µM (≈ 4.57 µg/mL); in the data set on Eschericia coli ESS, 4.7 µM (≈ 2.28 µg/mL). Besides, the “activity against E coli ATCC25922” value in [9] is on record as “high activity”. Moreover, the “activity against ESS strain of E.coli” value in the data set with Eschericia coli ESS is recorded as “high activity”.

For orientation: solubility means the concentration that dissolves in the medium under given conditions. In the case of `Cc1ccccc1-c1ccc(OCCN(C)C)c(CCC(=O)c2ccccc2CN(C)C)c1` [Compound C073, 3-[4-(2-Dimethylamino-ethoxy)-2′-methyl-biphenyl-3-yl]-1-(2-dimethylaminomethyl-phenyl)-propan-1-one], in data set [2] (0.3 M phosphate buffer, thermodynamic from solid), the solubility at 24 h was over 10000 µg/mL.

In data set [2], `CN(C)CCOc1ccc(-c2ccccc2)cc1/C=C/C(=O)c1cccc(CN(C)C)c1` [Compound C037, (E)-3-[4-(2-Dimethylamino-ethoxy)-biphenyl-3-yl]-1-(3-dimethylaminomethyl-phenyl)-propenone] yielded a Solubility of 1500 µg/mL (≈ 3.5 mM). Further, in the data set on L. major promastigotes, the midpoint of inhibition, the IC50, lay at 500 nM. Moreover, the “potency against Gram-positive pathogens in comparison with Licochalcone A” value in data set [10] (Gram-positive pathogens) is given as “increased potency”.

For `COc1ccc(C(=O)/C=C/c2cc(-c3ccccc3C)ccc2OCCN(C)C)cc1` [Compound C019, (E)-3-[4-(2-Dimethylamino-ethoxy)-2′-methyl-biphenyl-3-yl]-1-(4-methoxy-phenyl)-propenone], the “Inhibition of DHODH” value in data set [1] was found to be 18%. The “times more potent than LicA” value in the data set on L. major promastigotes (dose-respons curve at Leishmania Major, FIG. 5) is listed as 100 times.

As to `COc1ccc(C(=O)/C=C/c2cc(-c3cc(C)cc(C)c3)ccc2OCCN(C)C)c(F)c1` [Compound C024, (E)-3-[4-(2-Dimethylamino-ethoxy)-3′,5′-dimethyl-biphenyl-3-yl]-1-(2-fluoro-4-methoxy-phenyl)-propenone], in [4], the “Metabolic turn-over in vitro” value came to 3%. The IC50 in the data set on L. major promastigotes stood at 40 nM.

In the case of `Cc1cc(C)cc(-c2ccc(OCCN(C)C)c(C=CC(=O)c3cccc(F)c3)c2)c1` [Compound C079, (E)-3-[4-(2-Dimethylamino-ethoxy)-3′,5′-dimethyl-biphenyl-3-y]-1-(3-fluoro-phenyl)-propenone], the “activity against anaerobic bacteria” value in data set [11] is listed as “activity against all microorganisms within the test panel”.

Consider `COc1ccc(C(=O)/C=C/c2ccccc2)cc1` [4′MC, 4′-methoxy chalcone, reference compound], for which the “Inhibition of DHODH” value in [1] stood at 7%. Besides, in data set [10], the antibacterial effect result was “no antibacterial effect at all”.

In data set [2], `COc1ccc(C(=O)C=Cc2cc(-c3ccccc3Cl)ccc2OCCN(C)C)c(OC)c1OC` [Compound C018, (E)-3-[2′-Chloro-4-(2-dimethylamino-ethoxy)-biphenyl-3-yl]-1-(2,3,4-trimethoxy-phenyl)-propenone] came in with a Solubility of 1500 µg/mL (≈ 3.02 mM).

As to `COc1ccccc1-c1ccc(OCCN(C)C)c(/C=C/C(=O)c2ccccc2CN(C)C)c1` [Compound C036, (E)-3-[4-,(2-Dimethylamino-ethoxy)-2′-methoxy-biphenyl-3-yl]-1-(2-dimethylaminomethyl-phenyl)-propenone], in data set [3], the IC50 was determined as 200 nM. Besides, in [2], the Solubility came to 1800 µg/mL (≈ 3.92 mM).

`COc1ccc(C(=O)/C=C/c2cc(-c3cc(C)cc(C)c3)ccc2OCCN(C)C)c(OC)c1OC` [Compound C025, (E)-3-[4-(2-Dimethylamino-ethoxy)-3′,5′-dimethyl-biphenyl-3-yl]-1-(2,3,4-trimethoxy-phenyl)-propenone]: in data set [11], the “activity against anaerobic bacteria” value is “activity against all microorganisms within the test panel”.

With `COc1ccc(C(=O)/C=C/c2cc(-c3ccccc3C)ccc2OCCN(C)C)c(Cl)c1` [Compound C022, (E)-1-(2-Chloro-4-methoxy-phenyl)-3-[4-(2-dimethylamino-ethoxy)-2′-methyl-biphenyl-3-yl]-propenone], in [1], the “Inhibition of DHODH” value came to 21%.

As to `Cc1ccccc1-c1ccc(OCCN(C)C)c(/C=C/C(=O)c2ccc(O)c(CN(C)C)c2)c1` [Compound C108, (E)-3-[4-(2-Dimethylamino-ethoxy)-2′-methyl-biphenyl-3-yl]-1-(3-dimethylaminomethyl-4-hydroxy-phenyl)-propenone], the Solubility in data set [2] turned out to be 18100 µg/mL (≈ 39.5 mM).

Regarding `Cc1cc(C)cc(-c2ccc(OCCN(C)C)c(/C=C/C(=O)c3cccc(CN(C)C)c3)c2)c1` [Compound C089, (E)-3-[4-(2-Dimethylamino-ethoxy)-3′,5′-dimethyl-biphenyl-3-yl]-1-(3-dimethylaminomethyl-phenyl)-propenone], the “Metabolic turn-over in vitro” value in [4] was 9%. For the same compound, the minimal inhibitory concentration (MIC) came to 9.4 µM (≈ 4.29 µg/mL) in data set [5]; 9.4 µM (≈ 4.29 µg/mL) in [6]; 9.4 µM (≈ 4.29 µg/mL) in [7]; 9.4 µM (≈ 4.29 µg/mL) in [8]; 9.7 µM (≈ 4.43 µg/mL) in [12]; 37.5 µM (≈ 17.1 µg/mL) in data set [9]. In the data set with Eschericia coli ESS, this compound showed an MIC of 4.7 µM (≈ 2.15 µg/mL).

On to `COc1ccc(C(=O)/C=C/c2cc(-c3ccccc3C)ccc2OCCN(C)C)c(F)c1` [Compound C020, (E)-3-[4-(2-Dimethylamino-ethoxy)-2′-methyl-biphenyl-3-yl]-1-(2-fluoro-4-methoxy-phenyl)-propenone], for which the “Inhibition of DHODH” value in data set [1] amounted to 18%. In the data set on L. major promastigotes, the IC50 was 30 nM.
